Test results as given in US7109242B2, “Carboxylic compound and medicine comprising the same” (Kowa Company, Ltd., priority 2003, dated 2006).
Where a name gives a salt, the structure may show the parent alone.

Key:
[1] = tested on: C57BL/KsJ db/db mouse; experiment: Actions of lowering plasma glucose, insulin and triglyceride in vivo in db/db mice; conditions: for Reduction rate of plasma glucose / Reduction rate of plasma insulin / Reduction rate of plasma triglyceride: blood two hours after administration on 14th day; for Plasma glucose reducing action (ED25): oral once a day for 14 days, dose required for reduction of plasma glucose concentration by 25%, vehicle group as 100%
Description: The compounds of the present invention and the aforementioned Compound A and pioglitazone hydrochloride each as a reference compound were subjected to the measurements of the actions of lowering plasma glucose, insulin, and triglyceride in vivo according to the following method (Metabolism, 48, pp34–40, 1999, Journal of Medicinal Chemistry, 44, pp2601–2611, 2001).
C57BL/KsJ db/db mouse (Journal of Clinical Investigation, 85, pp 962–967, 1990) was used as an experimental animal, which was developed in The Jackson Laboratory (USA) and is known as a model animal with obesity, hyperlipemia, hyperinsulinemia, and insulin resistance.
Bloods were collected from seven weeks old db/db mice from their orbital sinus by using heparin-treated capillary tubes. After centrifugation of the bloods, plasma was collected and then subjected to measurements of concentrations of plasma glucose, insulin, and triglyceride to divide the animals. From the next day of the day of blood collection, the administrations of the compounds were started. The compounds were orally administered once a day for 14 days. On the 14th day, blood was collected from orbital sinus two hours after the administration of the compounds. Plasma was collected, and subjected to measurements of concentrations of plasma glucose, insulin, and triglyceride.
The dose required for reduction of plasma glucose concentration by 25% (ED25) was obtained using the value of the vehicle administered group as 100% (Arznimittel-Forschung, 40, pp156–162, 1990).

[2] = target: T1, PPAR γ (Homo sapiens, UniProt P37231); conditions: mode of action of thiazolidinedione type compounds; cited from earlier work
T1 sequence (P37231 1-505): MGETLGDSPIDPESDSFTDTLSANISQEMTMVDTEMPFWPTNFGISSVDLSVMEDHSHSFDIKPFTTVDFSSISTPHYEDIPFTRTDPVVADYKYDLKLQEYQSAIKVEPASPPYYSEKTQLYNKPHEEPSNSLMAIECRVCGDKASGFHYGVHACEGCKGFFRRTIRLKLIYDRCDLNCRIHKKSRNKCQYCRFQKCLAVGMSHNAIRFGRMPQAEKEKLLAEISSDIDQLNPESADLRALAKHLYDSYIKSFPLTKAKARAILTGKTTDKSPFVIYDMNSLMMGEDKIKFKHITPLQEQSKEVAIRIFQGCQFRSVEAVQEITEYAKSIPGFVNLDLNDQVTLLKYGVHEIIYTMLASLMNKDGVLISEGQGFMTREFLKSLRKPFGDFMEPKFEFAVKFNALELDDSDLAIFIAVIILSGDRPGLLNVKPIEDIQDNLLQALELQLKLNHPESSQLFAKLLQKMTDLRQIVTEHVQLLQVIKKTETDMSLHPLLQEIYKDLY

[3] = 3 mg/kg orally once a day for 14 days
[4] = 10 mg/kg orally once a day for 14 days
[5] = 30 mg/kg orally once a day for 14 days
[6] = 0.5 mg/kg orally once a day for 14 days, 0.5 mg/kg
[7] = 1.5 mg/kg orally once a day for 14 days, 1.5 mg/kg
[8] = 5 mg/kg orally once a day for 14 days, 5 mg/kg
[9] = 1 mg/kg orally once a day for 14 days

Q: For `O=C(O)C(Cl)(Cl)CCCCCCCC(O)CCc1ccc(Cl)cc1` (stereo not shown) [Example 2(4), 2,2-dichloro-12-(4-chlorophenyl)-10-hydroxydodecanoic acid], which “Reduction rate of plasma glucose” value [1, 3] is on record?
A: 44.4 ± 17.0

Q: And the “Reduction rate of plasma insulin” value [1, 3]?
A: −12.5 ± 58.1

Q: And the “Reduction rate of plasma triglyceride” value [1, 3]?
A: 53.2 ± 6.9

Q: What about the “Reduction rate of plasma glucose” value [1, 4] of the same molecule?
A: 66.6 ± 4.1

Q: And the “Reduction rate of plasma insulin” value [1, 4]?
A: 39.1 ± 21.3

Q: And the “Reduction rate of plasma triglyceride” value [1, 4]?
A: 54.1 ± 5.5

Q: What about the “Reduction rate of plasma glucose” value [1, 5] of the same molecule?
A: 75.2 ± 3.1

Q: And the “Reduction rate of plasma insulin” value [1, 5]?
A: 64.3 ± 10.1

Q: And the “Reduction rate of plasma triglyceride” value [1, 5]?
A: 55.7 ± 6.3

Q: And the “Plasma glucose reducing action (ED25)” value [1]?
A: 0.6 mg/kg

Q: What about the “Plasma glucose reducing action (ED25)” value ([1]; listed as Example 2 (4)) of the same molecule?
A: 0.6 mg/kg

Q: Which “Reduction rate of plasma glucose” value [1, 6] does the source give for `O=C(O)C(Cl)(Cl)CCCCCCCC(O)CCc1ccc(Cl)cc1` (single isomer, unassigned; (+)) [Example 5(4), (+)-2,2-dichloro-12-(4-chlorophenyl)-10-hydroxydodecanoic acid] here?
A: 20.7 ± 14.3

Q: What about the “Reduction rate of plasma insulin” value [1, 6] of the same molecule?
A: −22.0 ± 84.1

Q: And the “Reduction rate of plasma triglyceride” value [1, 6]?
A: 42.0 ± 17.3

Q: What about the “Reduction rate of plasma glucose” value [1, 7] of the same molecule?
A: 40.6 ± 5.8

Q: And the “Reduction rate of plasma insulin” value [1, 7]?
A: 39.5 ± 37.5

Q: And the “Reduction rate of plasma triglyceride” value [1, 7]?
A: 48.3 ± 6.9

Q: What about the “Reduction rate of plasma glucose” value [1, 8] of the same molecule?
A: 42.4 ± 11.4

Q: And the “Reduction rate of plasma insulin” value [1, 8]?
A: 43.8 ± 26.3

Q: And the “Reduction rate of plasma triglyceride” value [1, 8]?
A: 44.6 ± 9.7

Q: What about the “Plasma glucose reducing action (ED25)” value [1] of the same molecule?
A: 0.5 mg/kg

Q: And the “Plasma glucose reducing action (ED25)” value ([1]; listed as Example 5 (4))?
A: 0.5 mg/kg

Q: Which results are given for `O=C(O)C(Cl)(Cl)CCCCCCCC(O)CCc1ccc(Cl)cc1` (single isomer, unassigned; (-)) [Example 5(5), (−)-2,2-dichloro-12-(4-chlorophenyl)-10-hydroxydodecanoic acid]?
A: Reduction rate of plasma glucose [1, 6]: −10.3; Reduction rate of plasma insulin [1, 6]: 20.8 ± 32.0; Reduction rate of plasma triglyceride [1, 6]: 23.0 ± 13.8; Reduction rate of plasma glucose [1, 7]: 28.5 ± 10.7; Reduction rate of plasma insulin [1, 7]: 20.4 ± 38.0; Reduction rate of plasma triglyceride [1, 7]: 40.5 ± 15.3; Reduction rate of plasma glucose [1, 8]: 49.2 ± 9.6; Reduction rate of plasma insulin [1, 8]: 68.9 ± 13.2; Reduction rate of plasma triglyceride [1, 8]: 37.6 ± 11.3; Plasma glucose reducing action (ED25) [1]: 1.7 mg/kg

Q: With `CCc1ccc(CCOc2ccc(CC3SC(=O)NC3=O)cc2)nc1` (stereo not shown) [Pioglitazone hydrochloride, reference compound] as the molecule, how does the “Reduction rate of plasma glucose” value [1, 3] read?
A: 13.4 ± 18.3

Q: And the “Reduction rate of plasma insulin” value [1, 3]?
A: −24.7 ± 119.3

Q: What about the “Reduction rate of plasma triglyceride” value [1, 3] of the same molecule?
A: 9.4 ± 15.9

Q: What about the “Reduction rate of plasma glucose” value [1, 4] of the same molecule?
A: 22.3 ± 22.8

Q: What about the “Reduction rate of plasma insulin” value [1, 4] of the same molecule?
A: −18.7 ± 52.5

Q: What about the “Reduction rate of plasma triglyceride” value [1, 4] of the same molecule?
A: 25.4 ± 16.9

Q: What about the “Reduction rate of plasma glucose” value [1, 5] of the same molecule?
A: 45.2 ± 21.2

Q: And the “Reduction rate of plasma insulin” value [1, 5]?
A: 13.9 ± 22.7

Q: What about the “Reduction rate of plasma triglyceride” value [1, 5] of the same molecule?
A: 38.2 ± 8.1

Q: What about the “Plasma glucose reducing action (ED25)” value [1] of the same molecule?
A: 8.3 mg/kg

Q: What does the source list for `O=C(O)C(Cl)(Cl)CCCCCCCCC(O)Cc1ccc(Cl)cc1` (stereo not shown) [Example 4(4), 2,2-dichloro-12-(4-chlorophenyl)-11-hydroxydodecanoic acid]?
A: Reduction rate of plasma glucose [1, 3]: 35.0 ± 21.2; Reduction rate of plasma insulin [1, 3]: −19.8 ± 71.8; Reduction rate of plasma triglyceride [1, 3]: 45.5 ± 13.9; Reduction rate of plasma glucose [1, 4]: 65.2 ± 8.0; Reduction rate of plasma insulin [1, 4]: 20.3 ± 24.9; Reduction rate of plasma triglyceride [1, 4]: 58.8 ± 3.7; Reduction rate of plasma glucose [1, 5]: 67.2 ± 6.8; Reduction rate of plasma insulin [1, 5]: 51.1 ± 20.2; Reduction rate of plasma triglyceride [1, 5]: 54.1 ± 6.6; Plasma glucose reducing action (ED25) [1]: 1.1 mg/kg

Q: For `O=C(O)C(Cl)(Cl)CCCCCCCCCCc1ccc(Cl)cc1` [Compound A], which “Reduction rate of plasma glucose” value [1, 9] is on record?
A: −5.0 ± 19.5

Q: And the “Reduction rate of plasma insulin” value [1, 9]?
A: 0.7 ± 77.6

Q: And the “Reduction rate of plasma triglyceride” value [1, 9]?
A: 23.4 ± 15.3

Q: And the “Reduction rate of plasma glucose” value [1, 3]?
A: 25.4 ± 17.7

Q: And the “Reduction rate of plasma insulin” value [1, 3]?
A: 7.4 ± 18.7

Q: And the “Reduction rate of plasma triglyceride” value [1, 3]?
A: 27.5 ± 17.5

Q: What about the “Reduction rate of plasma glucose” value [1, 4] of the same molecule?
A: 65.3 ± 5.0

Q: And the “Reduction rate of plasma insulin” value [1, 4]?
A: 10.7 ± 61.6

Q: And the “Reduction rate of plasma triglyceride” value [1, 4]?
A: 54.6 ± 4.1

Q: And the “Plasma glucose reducing action (ED25)” value [1]?
A: 2.8 mg/kg

Q: And the “PPAR γ activating action” value [2]?
A: no PPAR γ activating action

Q: Which “Reduction rate of plasma glucose” value [1, 3] does the source give for `O=C(O)C(Cl)(Cl)CCCCCCCCCC(O)c1ccc(Cl)cc1` (stereo not shown) [Example 3(4), 2,2-dichloro-12-(4-chlorophenyl)-12-hydroxydodecanoic acid] here?
A: 29.3 ± 28.7

Q: And the “Reduction rate of plasma insulin” value [1, 3]?
A: −2.8 ± 46.6

Q: What about the “Reduction rate of plasma triglyceride” value [1, 3] of the same molecule?
A: 23.2 ± 24.7

Q: What about the “Reduction rate of plasma glucose” value [1, 4] of the same molecule?
A: 53.4 ± 14.7

Q: And the “Reduction rate of plasma insulin” value [1, 4]?
A: 39.0 ± 10.3

Q: What about the “Reduction rate of plasma triglyceride” value [1, 4] of the same molecule?
A: 40.6 ± 8.9

Q: And the “Reduction rate of plasma glucose” value [1, 5]?
A: 74.5 ± 3.0

Q: What about the “Reduction rate of plasma insulin” value [1, 5] of the same molecule?
A: 61.7 ± 18.5

Q: And the “Reduction rate of plasma triglyceride” value [1, 5]?
A: 25.8 ± 24.7

Q: What about the “Plasma glucose reducing action (ED25)” value [1] of the same molecule?
A: 2.4 mg/kg
